Results as given in ChEMBL document CHEMBL1130256, “1-[1-2-Benzo[b]thiopheneyl)cyclohexyl]piperidine hydrochloride (BTCP) yields two active primary metabolites in vitro: synthesis, identification from rat liver microsome extracts, and affinity for the neuronal dopamine transporter” (J Med Chem, 1997).

What was measured:
[1] = Amount of metabolites in the microsomal medium after 90 min incubation of BTCP (500 uM); assay type: ADME, Microsome; details: microsomes, 1.5 h
[2] = target: Sodium-dependent dopamine transporter (Rattus norvegicus, UniProt P23977); experiment: Inhibitory activity of compound against [3H]BTCP binding to neuronal dopamine transporter of rat striatal membrane
Chain of Sodium-dependent dopamine transporter (P23977 whole entry): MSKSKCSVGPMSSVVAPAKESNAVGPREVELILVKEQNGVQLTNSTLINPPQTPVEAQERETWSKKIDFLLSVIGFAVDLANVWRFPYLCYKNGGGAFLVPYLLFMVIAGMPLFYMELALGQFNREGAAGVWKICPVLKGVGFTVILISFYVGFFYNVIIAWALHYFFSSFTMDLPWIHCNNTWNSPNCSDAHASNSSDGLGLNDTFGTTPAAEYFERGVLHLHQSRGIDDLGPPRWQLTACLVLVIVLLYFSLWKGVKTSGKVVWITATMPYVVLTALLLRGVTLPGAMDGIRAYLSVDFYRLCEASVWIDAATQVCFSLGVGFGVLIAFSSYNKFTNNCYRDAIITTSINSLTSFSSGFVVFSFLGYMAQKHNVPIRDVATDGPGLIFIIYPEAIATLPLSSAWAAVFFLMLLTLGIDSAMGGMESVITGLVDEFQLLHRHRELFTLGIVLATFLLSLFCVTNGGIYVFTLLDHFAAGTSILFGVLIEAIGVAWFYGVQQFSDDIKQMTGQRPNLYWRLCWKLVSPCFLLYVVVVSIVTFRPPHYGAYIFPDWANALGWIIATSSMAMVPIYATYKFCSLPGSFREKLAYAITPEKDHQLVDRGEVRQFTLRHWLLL

| SMILES | Amount [1] | IC50 [2] [nM] |
| --- | --- | --- |
| OC1(c2cc3ccccc3s2)CCCCC1 | 141 pmol |  |
| OC1CCN(C2(c3cc4ccccc4s3)CCCCC2)CC1 | 615 pmol |  |
| O[C@@H]1CCC[C@@](c2cc3ccccc3s2)(N2CCCCC2)C1 | 4 pM |  |
| OC1CCCN(C2(c3cc4ccccc4s3)CCCCC2)C1 (stereo not given) | 147 pmol | 1.75 |
